Each structure is given as a SMILES string.

This experiment relates to Endogenous Huntingtin Protein. The experiment is described as follows: Endogenous Huntingtin Protein Assay (MSD plates, MW1 or MAB2166 capture antibody). It is filed as cell-based. The following applies: Table 1. How it is done: Endogenous Huntingtin Protein Assay
Meso Scale Discovery (MSD) 96-well or 384-well plates were coated overnight at 4° C. with MW1 (expanded polyglutamine) or MAB2166 monoclonal antibody (for capture) at a concentration of 1 μg/mL in PBS (30 μL per well). Plates were then washed three times with 300 μL wash buffer (0.05% Tween-20 in PBS) and blocked (100 μL blocking buffer; 5% BSA in PBS) for 4-5 hours at room temperature with rotational shaking and then washed three times with wash buffer.
Samples (25 μL) were transferred to the antibody-coated MSD plate and incubated overnight at 4° C. After removal of the lysates, the plate was washed three times with wash buffer, and 25 μL of #5656S (Cell signaling; rabbit monoclonal) secondary antibody (diluted to 0.25 μg/mL in 0.05% Tween-20 in blocking buffer) was added to each well and incubated with shaking for 1 Hour at room temperature. Following incubation with the secondary antibody, the wells were rinsed with wash buffer after which 25 μL of goat anti-rabbit SULFO TAG secondary detection antibody (required aspect of the MSD system) (diluted to 0.25 μg/mL in 0.05% Tween-20 in blocking buffer) was added to each well and incubated with shaking for 1 hour at room temperature. After rinsing three times with wash buffer, 150 μL of read buffer T with surfactant (MSD) were added to each empty well, and the plate was imaged on a SI 6000 imager (MSD) according to manufacturers' instructions provided for 96- or 384-well plates.
Consider `Oc1cc(-c2cn[nH]c2)cnc1-c1nc2sc(N3CC4(CCCNC4)C3)nc2s1` [Compound 192, 2-[5-(2,6-diazaspiro[3.5]nonan-2-yl)[1,3]thiazolo[5,4-d][1,3]thiazol-2-yl]-5-(1H-pyrazol-4-yl)pyridin-3-ol], for which the IC50 – broadly, the concentration needed to halve the response being measured – was at most 0.1 µM.

`C[C@H]1C[C@@H](N(C)c2nc3sc(-c4ccc(-c5cn[nH]c5)c5cc[nH]c45)nc3s2)CCN1` [Compound 97, N-methyl-N-[(2S,4S)-2-methylpiperidin-4-yl]-5-[4-(1H-pyrazol-4-yl)-1H-indol-7-yl][1,3]thiazolo[5,4-d][1,3]thiazol-2-amine] gave a half-maximal inhibitory concentration (IC50) of at most 0.1 µM.

The compound `Cc1cn2cc(-c3nn4cc(C5CCNCC5)nc4s3)cc(F)c2n1` [Compound 30, 8-fluoro-2-methyl-6-[6-(piperidin-4-yl)imidazo[2,1-b][1,3,4]thiadiazol-2-yl]imidazo[1,2-a]pyridine] had a concentration for half-maximal inhibition (IC50) of 0.1 to 0.5 µM.

As for `c1cc2c(-c3cn[nH]c3)cnc(-c3nc4sc(N5CCC56CCCNC6)nc4s3)c2[nH]1` (centres unmarked) [Compound 134, 7-[5-(1,6-diazaspiro[3.5]nonan-1-yl)[1,3]thiazolo[5,4-d][1,3]thiazol-2-yl]-4-(1H-pyrazol-4-yl)-1H-pyrrolo[2,3-c]pyridine], the IC50 is at most 0.1 µM.

For `CN1CCC(Nc2nc3sc(-c4ccc(-c5cn[nH]c5)cc4O)nc3s2)CC1` [Compound 23, 2-{5-[(1-methylpiperidin-4-yl)amino][1,3]thiazolo[5,4-d][1,3]thiazol-2-yl}-5-(1H-pyrazol-4-yl)phenol], the concentration for half-maximal inhibition (IC50) is at most 0.1 µM.

Consider `CN(c1nc2sc(-c3cnc(-c4cn[nH]c4)c4[nH]ccc34)nc2s1)C1CCNCC1` [Compound 226, N-methyl-N-(piperidin-4-yl)-5-[7-(1H-pyrazol-4-yl)-1H-pyrrolo[2,3-c]pyridin-4-yl][1,3]thiazolo[5,4-d][1,3]thiazol-2-amine], for which the IC50 is at most 0.1 µM.

As to `CN(c1nc2sc(-c3cnc(-c4cn[nH]c4)nc3)nc2s1)C1CC(C)(C)NC(C)(C)C1` [Compound 137, N-methyl-5-[2-(1H-pyrazol-4-yl)pyrimidin-5-yl]-N-(2,2,6,6-tetramethylpiperidin-4-yl)[1,3]thiazolo[5,4-d][1,3]thiazol-2-amine], the IC50 was at most 0.1 µM.

`CN(c1nc2sc(-c3ccc(-c4cnn(C)c4)cc3O)nc2s1)C1CCNCC1` [Compound 40, 2-{5-[methyl(piperidin-4-yl)amino][1,3]thiazolo[5,4-d][1,3]thiazol-2-yl}-5-(1-methyl-1H-pyrazol-4-yl)phenol] showed a half-maximal inhibitory concentration (IC50) of at most 0.1 µM.

In turn, `C[C@@H]1C[C@@H](N(C)c2nc3sc(-c4ncc(-c5cn[nH]c5)c5cc[nH]c45)nc3s2)CCN1` [Compound 87, N-methyl-N-[(2R,4S)-2-methylpiperidin-4-yl]-5-[4-(1H-pyrazol-4-yl)-1H-pyrrolo[2,3-c]pyridin-7-yl][1,3]thiazolo[5,4-d][1,3]thiazol-2-amine] registered a concentration for half-maximal inhibition (IC50) of at most 0.1 µM.

Take `Cc1cn2nc(-c3nc4sc(C5CCNCC5)nc4s3)cc(C)c2n1` [Compound 12, 2,8-dimethyl-6-[5-(piperidin-4-yl)[1,3]thiazolo[5,4-d][1,3]thiazol-2-yl]imidazo[1,2-b]pyridazine]: the IC50 was in the range of 0.1 to 0.5 µM.

As for `CN(c1nc2sc(-c3ncc(-c4cn[nH]c4)nn3)nc2s1)C1CC(C)(C)NC(C)(C)C1` [Compound 100, N-methyl-5-[6-(1H-pyrazol-4-yl)-1,2,4-triazin-3-yl]-N-(2,2,6,6-tetramethylpiperidin-4-yl)[1,3]thiazolo[5,4-d][1,3]thiazol-2-amine], the IC50 is at most 0.1 µM.

The compound `CC1CC(N(C)c2nc3sc(-c4ccc(Cl)c5cc[nH]c45)nc3s2)CCN1C` (centres unmarked) [Compound 119, 5-(4-chloro-1H-indol-7-yl)-N-(1,2-dimethylpiperidin-4-yl)-N-methyl[1,3]thiazolo[5,4-d][1,3]thiazol-2-amine] gave a 50% inhibitory concentration (IC50) of 1 to 3 µM.

Compound `CN(c1nc2sc(-n3ccc(-c4cn[nH]c4)cc3=O)nc2s1)[C@@H]1CCCNC1` [Compound 155, 1-(5-{methyl[(3R)-piperidin-3-yl]amino}[1,3]thiazolo[5,4-d][1,3]thiazol-2-yl)-4-(1H-pyrazol-4-yl)pyridin-2(1H)-one] came in with a half-maximal inhibitory concentration (IC50) of 0.1 to 0.5 µM.

In turn, `CN(c1nc2sc(-c3ccc(-c4ccnc(O)c4)cc3O)nc2s1)C1CCNCC1` [Compound 35, 4-(3-hydroxy-4-{5-[methyl(piperidin-4-yl)amino][1,3]thiazolo[5,4-d][1,3]thiazol-2-yl}phenyl)pyridin-2-ol] gave an IC50 of 3 to 9 µM.

For `CN1CCC(N(C)c2nc3sc(-c4ncc(-c5cn[nH]c5)cc4O)nc3s2)CC1` [Compound 217, 2-{5-[methyl(1-methylpiperidin-4-yl)amino][1,3]thiazolo[5,4-d][1,3]thiazol-2-yl}-5-(1H-pyrazol-4-yl)pyridin-3-ol], the concentration for half-maximal inhibition (IC50) is at most 0.1 µM.

Consider `CC1CC(N(C)c2nc3sc(-c4cnc(-c5cn[nH]c5)nc4)nc3s2)CCN1C` (centres unmarked) [Compound 130, N-(1,2-dimethylpiperidin-4-yl)-N-methyl-5-[2-(1H-pyrazol-4-yl)pyrimidin-5-yl][1,3]thiazolo[5,4-d][1,3]thiazol-2-amine], for which the IC50 lay within 1 to 3 µM.

On to `CN(c1nc2sc(-n3ccc(-c4cn[nH]c4)cc3=O)nc2s1)C1CC(C)(C)NC(C)(C)C1` [Compound 181, 1-{5-[methyl(2,2,6,6-tetramethylpiperidin-4-yl)amino][1,3]thiazolo[5,4-d][1,3]thiazol-2-yl}-4-(1H-pyrazol-4-yl)pyridin-2(1H)-one], for which the 50% inhibitory concentration (IC50) was at most 0.1 µM.

In turn, `CN1CCC2(CC1)CN(c1nc3sc(-c4ncc(-c5cn[nH]c5)cc4O)nc3s1)C2` [Compound 196, 2-[5-(7-methyl-2,7-diazaspiro[3.5]nonan-2-yl)[1,3]thiazolo[5,4-d][1,3]thiazol-2-yl]-5-(1H-pyrazol-4-yl)pyridin-3-ol] came in with a half-maximal inhibitory concentration (IC50) of at most 0.1 µM.

In turn, `CN1CCC2(CC1)CN(c1nc3sc(-c4ncc(-c5cn[nH]c5)c5cc[nH]c45)nc3s1)C2` [Compound 138, 7-[5-(7-methyl-2,7-diazaspiro[3.5]nonan-2-yl)[1,3]thiazolo[5,4-d][1,3]thiazol-2-yl]-4-(1H-pyrazol-4-yl)-1H-pyrrolo[2,3-c]pyridine] gave an IC50 of at most 0.1 µM.

Turning to `CN(c1nc2sc(-n3cnc(-c4cn[nH]c4)cc3=O)nc2s1)C1CC(C)(C)NC(C)(C)C1` [Compound 140, 3-{5-[methyl(2,2,6,6-tetramethylpiperidin-4-yl)amino][1,3]thiazolo[5,4-d][1,3]thiazol-2-yl}-6-(1H-pyrazol-4-yl)pyrimidin-4(3H)-one], the IC50 was at most 0.1 µM.

Regarding `Cn1cc2cc(-c3nc4sc(C5CCNCC5)nc4s3)cc(F)c2n1` [Compound 11, 7-fluoro-2-methyl-5-[5-(piperidin-4-yl)[1,3]thiazolo[5,4-d][1,3]thiazol-2-yl]-2H-indazole], the IC50 was at most 0.1 µM.

Compound `CN(c1nc2sc(-c3cnc(-c4cn[nH]c4)cn3)nc2s1)[C@H]1C[C@]2(C)CC[C@](C)(C1)N2C` [Compound 114, N-methyl-5-[5-(1H-pyrazol-4-yl)pyrazin-2-yl]-N-[(1R,3s,5S)-1,5,8-trimethyl-8-azabicyclo[3.2.1]octan-3-yl][1,3]thiazolo[5,4-d][1,3]thiazol-2-amine] registered an IC50 of at most 0.1 µM.

The compound `CN(c1nc2sc(-c3ccc(-c4cn[nH]c4)c4cn[nH]c34)nc2s1)C1CC(C)(C)NC(C)(C)C1` [Compound 107, N-methyl-5-[4-(1H-pyrazol-4-yl)-1H-indazol-7-yl]-N-(2,2,6,6-tetramethylpiperidin-4-yl)[1,3]thiazolo[5,4-d][1,3]thiazol-2-amine] showed an IC50 of at most 0.1 µM.

The record behind these values is patent US11685746B2, “Heteroaryl compounds for treating Huntington's disease” (PTC THERAPEUTICS, INC., priority 2018, dated 2023).
